Experimental data: US20180086789A1, “PHARMACEUTICAL COMPOUND” (VALLAURIX PTE. LTD., priority 2015, published 2018)
Non-standard residues stand in square brackets, D forms with d. hArg = N=C(N)NCCCC[C@H](N)C(=O)O; Nle = CCCC[C@H](N)C(=O)O

Tests used:
tyrosinase = assay: Effects on tyrosinase activity in human melanocyte culture 1750 (3H-labeled tyrosine); type: cell-based
Experimental: The compound with formula structure Ac-Nle-Glu-His-D-Phe-homoArg-Trp-NH2 of the invention was tested using human melanocyte culture coded 1750 that expressed functional MC1R. The melanocytes were plated at a density of 0.3*10^6 cells onto 60 mm dishes (triplicate dishes/group). After 48 hours, the melanocytes were treated every other day for a total of six days with different doses (10^−12 M to 10^−7 M) of the compound. A control without compound was included in the test. […] On treatment day 5, ^3H-labeled tyrosine, the substrate for tyrosinase, was added and 24 hours later, the supernatant was saved to be assayed for tyrosinase activity as described by Suzuki et al (see example 2). Duplicate samples from each were assayed, with triplicate dishes included in each group. Cell number in each dish was counted, and tyrosinase activity was expressed as dpm/10^6 cells and as % of the control. Statistical analysis was carried out using ANOVA followed by Newman Kuels test.
It will be understood that this tyrosinase activation test relates to a late event after MC1R activation, compared to the earlier secondary messenger effect of the above cAMP test. As pointed out above, activity of tyrosinase requires days of treatment.

MC1R = target: T1, MC1R (Homo sapiens, UniProt Q01726); assay: Effects on cAMP in human melanocyte culture 1753 (radioimmunoassay); type: cell-based
T1 construct: human melanocyte culture coded 1753 that expressed functional MC1R; endogenous in cells; host or cells: human melanocyte culture coded 1753
Experimental: The compound with formula structure Ac-Nle-Glu-His-D-Phe-homoArg-Trp-NH2 of the invention was tested using human melanocyte culture coded 1753 that expressed functional MC1R. The melanocytes were plated at a density of 0.3*10^6 cells/well. After 48 hours, the melanocytes were treated with different compound concentrations (10^−12 to 10^−7 M) for 1 hour. A control without compound was included in the test. […] The reaction was stopped by addition of 50 μl 1 N HCl and the supernatant in each well was used to measure cAMP using a radioimmunoassay as described by Suzuki 1996 (Suzuki I, Cone R D, Im S, Nordlund J J, Abdel-Malek Z: “Binding of melanotropic hormones to the MC1 receptor on human melanocytes stimulates proliferation and melanogenesis”. Endocrinology 137: 1627-1633, 1996). Duplicate samples from each well were assayed with triplicate wells included in each group. The mean of 6 cAMP measurements per group was expressed as % of the control group. Statistical analysis was carried out using ANOVA followed by Newman Kuels test. In some cases, unpaired t-test was used.

[1] = concentrations from 10^−10 M to 10^−7M

T1 sequence (Q01726 whole entry): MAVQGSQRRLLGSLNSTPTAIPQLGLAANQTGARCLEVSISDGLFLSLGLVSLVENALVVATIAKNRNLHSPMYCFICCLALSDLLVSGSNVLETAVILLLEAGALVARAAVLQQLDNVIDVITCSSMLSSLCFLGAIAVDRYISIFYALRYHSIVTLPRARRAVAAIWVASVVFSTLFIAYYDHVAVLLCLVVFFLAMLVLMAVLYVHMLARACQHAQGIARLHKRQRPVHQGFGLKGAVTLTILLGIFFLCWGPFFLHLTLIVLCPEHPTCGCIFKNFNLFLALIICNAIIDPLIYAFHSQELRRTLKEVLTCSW

## Ac-[Nle]EH[dF][hArg]W-NH2 [compound of the invention]
tyrosinase; 10^−8 M, six days of treatment, human melanocyte culture 1750 expressing functional MC1R
  tyrosinase activity, highest efficacy, % of the control: 227%
tyrosinase; 10^−9 M, six days of treatment, human melanocyte culture 1750 expressing functional MC1R
  tyrosinase activity, efficacy, % of the control: 198%
tyrosinase; [1]
  tyrosinase activity results statistically different compared to the control (p<0.05): statistically different compared to the control
MC1R; 10^−7M, 1 hour treatment, human melanocyte culture 1753 expressing functional MC1R
  cAMP, highest efficacy, expressed as % of the control group: 216%
MC1R; [1]
  cAMP results statistically different compared to the control (p<0.05): statistically different compared to the control
